Where a SMILES comes first, the peptide text is derived from it. Bridges are numbered along the chain shown (N, C = ends). Roman numbers before positions name the chains, in order.

This assay has as its system IOBA-NHC cells. The format is cell-based, human. The note with it: 24 h. The protocol: IOBA-NHC cells were cultured under standard conditions (humidified atmosphere of 5% CO2 at 37° C.) in DMEM/F12 supplemented with 1 μg/ml bovine pancreas insulin, 2 ng/ml mouse epidermal growth factor, 0.1 μg/ml cholera toxin, […] hydrocortisone, 10% fetal bovine serum (FBS), 50 UI/ml penicillin, and 50 UI/ml streptomycin. Cells from passages 50-80 were used in all experiments. Every day, normal culture development was observed by phase-contrast microscopy. Cells were removed by gentle trypsin incubation at confluence and counted. They were seeded into 96 well culture plates (Corning, Schiphol-Rijk, The Netherlands) for microtitration analysis of flow cytotoxicity assay (˜10,000 cells/well). Cultures were kept at 37° C. for 24 h. Subconfluent cells (culture surface covering nearly 70%) were then exposed to various peptide concentrations (0.22-225 μM). Cytotoxicity was measured periodically using MultiTox-Fluor Multiplex assay kit (Promega, Wis., USA) by measuring the AFC fluorescence (λex=485 and λem=520 nm).
Molecule `C[C@H](NC(=O)CNC(=O)[C@@H](N)CCCNC(=N)N)C(=O)N[C@@H](C)C(=O)N[C@@H](C)C(=O)N[C@@H](C)C(=O)N[C@@H](CCCNC(=N)N)C(=O)N[C@@H](CCCNC(=N)N)C(=O)NCCCC[C@H](NC(=O)[C@H](CCCNC(=N)N)NC(=O)[C@H](CCCNC(=N)N)NC(=O)[C@H](C)NC(=O)[C@H](C)NC(=O)[C@H](C)NC(=O)[C@H](C)NC(=O)CNC(=O)[C@@H](N)CCCNC(=N)N)C(=O)NCCCC[C@H](NC(=O)[C@H](CCCCNC(=O)[C@H](CCCNC(=N)N)NC(=O)[C@H](CCCNC(=N)N)NC(=O)[C@H](C)NC(=O)[C@H](C)NC(=O)[C@H](C)NC(=O)[C@H](C)NC(=O)CNC(=O)[C@@H](N)CCCNC(=N)N)NC(=O)[C@H](CCCNC(=N)N)NC(=O)[C@H](CCCNC(=N)N)NC(=O)[C@H](C)NC(=O)[C@H](C)NC(=O)[C@H](C)NC(=O)[C@H](C)NC(=O)CNC(=O)[C@@H](N)CCCNC(=N)N)C(=O)N[C@@H](CCCCN)C(=O)O` [[(SEQ ID NO: 17)2K]2KK] (I: H-RGAAAARRKKK-OH / II: H-RGAAAARRK / III: H-RGAAAARR / IV: H-RGAAAARR; amide I:9-IV:C, I:10-II:C, II:9-III:C; N-terminus and C-terminus assumed) returned an EC50 greater than 265 µM.
Consider `CC(C)[C@H](NC(=O)[C@H](C)NC(=O)[C@H](CCCNC(=N)N)NC(=O)CNC(=O)[C@@H](N)CCCNC(=N)N)C(=O)N[C@H](C(=O)N[C@@H](CCCNC(=N)N)C(=O)N[C@@H](CCCNC(=N)N)C(=O)NCCCC[C@H](NC(=O)[C@H](CCCNC(=N)N)NC(=O)[C@H](CCCNC(=N)N)NC(=O)[C@@H](NC(=O)[C@@H](NC(=O)[C@H](C)NC(=O)[C@H](CCCNC(=N)N)NC(=O)CNC(=O)[C@@H](N)CCCNC(=N)N)C(C)C)C(C)C)C(=O)NCCCC[C@H](NC(=O)[C@H](CCCCNC(=O)[C@H](CCCNC(=N)N)NC(=O)[C@H](CCCNC(=N)N)NC(=O)[C@@H](NC(=O)[C@@H](NC(=O)[C@H](C)NC(=O)[C@H](CCCNC(=N)N)NC(=O)CNC(=O)[C@@H](N)CCCNC(=N)N)C(C)C)C(C)C)NC(=O)[C@H](CCCNC(=N)N)NC(=O)[C@H](CCCNC(=N)N)NC(=O)[C@@H](NC(=O)[C@@H](NC(=O)[C@H](C)NC(=O)[C@H](CCCNC(=N)N)NC(=O)CNC(=O)[C@@H](N)CCCNC(=N)N)C(C)C)C(C)C)C(=O)N[C@@H](CCCCN)C(=O)O)C(C)C` [Peptide B4010-K4A] (I: H-RGRAVVRRKKK-OH / II: H-RGRAVVRRK / III: H-RGRAVVRR / IV: H-RGRAVVRR; amide I:9-IV:C, I:10-II:C, II:9-III:C), for which the EC50 is greater than 231 µM.
`CC(C)[C@H](NC(=O)[C@H](CCCCN)NC(=O)[C@H](CCCNC(=N)N)NC(=O)CNC(=O)[C@@H](N)CCCNC(=N)N)C(=O)N[C@H](C(=O)N[C@@H](CCCNC(=N)N)C(=O)N[C@@H](C)C(=O)NCCCC[C@H](NC(=O)[C@H](C)NC(=O)[C@H](CCCNC(=N)N)NC(=O)[C@@H](NC(=O)[C@@H](NC(=O)[C@H](CCCCN)NC(=O)[C@H](CCCNC(=N)N)NC(=O)CNC(=O)[C@@H](N)CCCNC(=N)N)C(C)C)C(C)C)C(=O)NCCCC[C@H](NC(=O)[C@H](CCCCNC(=O)[C@H](C)NC(=O)[C@H](CCCNC(=N)N)NC(=O)[C@@H](NC(=O)[C@@H](NC(=O)[C@H](CCCCN)NC(=O)[C@H](CCCNC(=N)N)NC(=O)CNC(=O)[C@@H](N)CCCNC(=N)N)C(C)C)C(C)C)NC(=O)[C@H](C)NC(=O)[C@H](CCCNC(=N)N)NC(=O)[C@@H](NC(=O)[C@@H](NC(=O)[C@H](CCCCN)NC(=O)[C@H](CCCNC(=N)N)NC(=O)CNC(=O)[C@@H](N)CCCNC(=N)N)C(C)C)C(C)C)C(=O)N[C@@H](CCCCN)C(=O)O)C(C)C` [Peptide B4010-R8A] (I: H-RGRKVVRAKKK-OH / II: H-RGRKVVRAK / III: H-RGRKVVRA / IV: H-RGRKVVRA; amide I:9-IV:C, I:10-II:C, II:9-III:C) returned an EC50 greater than 237 µM.
`CC(C)[C@H](NC(=O)[C@H](C)NC(=O)[C@H](C)NC(=O)[C@H](C)NC(=O)CNC(=O)[C@@H](N)CCCNC(=N)N)C(=O)N[C@@H](CCCNC(=N)N)C(=O)N[C@@H](CCCNC(=N)N)C(=O)NCCCC[C@H](NC(=O)[C@H](CCCNC(=N)N)NC(=O)[C@H](CCCNC(=N)N)NC(=O)[C@@H](NC(=O)[C@H](C)NC(=O)[C@H](C)NC(=O)[C@H](C)NC(=O)CNC(=O)[C@@H](N)CCCNC(=N)N)C(C)C)C(=O)NCCCC[C@H](NC(=O)[C@H](CCCCNC(=O)[C@H](CCCNC(=N)N)NC(=O)[C@H](CCCNC(=N)N)NC(=O)[C@@H](NC(=O)[C@H](C)NC(=O)[C@H](C)NC(=O)[C@H](C)NC(=O)CNC(=O)[C@@H](N)CCCNC(=N)N)C(C)C)NC(=O)[C@H](CCCNC(=N)N)NC(=O)[C@H](CCCNC(=N)N)NC(=O)[C@@H](NC(=O)[C@H](C)NC(=O)[C@H](C)NC(=O)[C@H](C)NC(=O)CNC(=O)[C@@H](N)CCCNC(=N)N)C(C)C)C(=O)N[C@@H](CCCCN)C(=O)O` [[(SEQ ID NO: 14)2K]2KK] (I: H-RGAAAVRRKKK-OH / II: H-RGAAAVRRK / III: H-RGAAAVRR / IV: H-RGAAAVRR; amide I:9-IV:C, I:10-II:C, II:9-III:C; N-terminus and C-terminus assumed) returned an EC50 greater than 257 µM.
`CC(C)[C@H](NC(=O)[C@H](CCCCN)NC(=O)[C@H](CCCNC(=N)N)NC(=O)CNC(=O)[C@@H](N)CCCNC(=N)N)C(=O)N[C@H](C(=O)N[C@@H](C)C(=O)N[C@@H](C)C(=O)NCCCC[C@H](NC(=O)[C@H](C)NC(=O)[C@H](C)NC(=O)[C@@H](NC(=O)[C@@H](NC(=O)[C@H](CCCCN)NC(=O)[C@H](CCCNC(=N)N)NC(=O)CNC(=O)[C@@H](N)CCCNC(=N)N)C(C)C)C(C)C)C(=O)NCCCC[C@H](NC(=O)[C@H](CCCCNC(=O)[C@H](C)NC(=O)[C@H](C)NC(=O)[C@@H](NC(=O)[C@@H](NC(=O)[C@H](CCCCN)NC(=O)[C@H](CCCNC(=N)N)NC(=O)CNC(=O)[C@@H](N)CCCNC(=N)N)C(C)C)C(C)C)NC(=O)[C@H](C)NC(=O)[C@H](C)NC(=O)[C@@H](NC(=O)[C@@H](NC(=O)[C@H](CCCCN)NC(=O)[C@H](CCCNC(=N)N)NC(=O)CNC(=O)[C@@H](N)CCCNC(=N)N)C(C)C)C(C)C)C(=O)N[C@@H](CCCCN)C(=O)O)C(C)C` [[(SEQ ID NO: 11)2K]2KK] (I: H-RGRKVVAAKKK-OH / II: H-RGRKVVAAK / III: H-RGRKVVAA / IV: H-RGRKVVAA; amide I:9-IV:C, I:10-II:C, II:9-III:C; N-terminus and C-terminus assumed) returned an EC50 greater than 257 µM.
`CC(C)[C@H](NC(=O)[C@H](CCCCN)NC(=O)[C@H](CCCNC(=N)N)NC(=O)CNC(=O)[C@@H](N)CCCNC(=N)N)C(=O)N[C@H](C(=O)N[C@@H](C)C(=O)N[C@@H](CCCNC(=N)N)C(=O)NCCCC[C@H](NC(=O)[C@H](CCCNC(=N)N)NC(=O)[C@H](C)NC(=O)[C@@H](NC(=O)[C@@H](NC(=O)[C@H](CCCCN)NC(=O)[C@H](CCCNC(=N)N)NC(=O)CNC(=O)[C@@H](N)CCCNC(=N)N)C(C)C)C(C)C)C(=O)NCCCC[C@H](NC(=O)[C@H](CCCCNC(=O)[C@H](CCCNC(=N)N)NC(=O)[C@H](C)NC(=O)[C@@H](NC(=O)[C@@H](NC(=O)[C@H](CCCCN)NC(=O)[C@H](CCCNC(=N)N)NC(=O)CNC(=O)[C@@H](N)CCCNC(=N)N)C(C)C)C(C)C)NC(=O)[C@H](CCCNC(=N)N)NC(=O)[C@H](C)NC(=O)[C@@H](NC(=O)[C@@H](NC(=O)[C@H](CCCCN)NC(=O)[C@H](CCCNC(=N)N)NC(=O)CNC(=O)[C@@H](N)CCCNC(=N)N)C(C)C)C(C)C)C(=O)N[C@@H](CCCCN)C(=O)O)C(C)C` [Peptide B4010-R7A] (I: H-RGRKVVARKKK-OH / II: H-RGRKVVARK / III: H-RGRKVVAR / IV: H-RGRKVVAR; amide I:9-IV:C, I:10-II:C, II:9-III:C) showed an EC50 greater than 237 µM.
The figure for `C[C@H](NC(=O)[C@H](C)NC(=O)[C@H](CCCNC(=N)N)NC(=O)CNC(=O)[C@@H](N)CCCNC(=N)N)C(=O)N[C@@H](C)C(=O)N[C@@H](CCCNC(=N)N)C(=O)N[C@@H](CCCNC(=N)N)C(=O)NCCCC[C@H](NC(=O)[C@H](CCCNC(=N)N)NC(=O)[C@H](CCCNC(=N)N)NC(=O)[C@H](C)NC(=O)[C@H](C)NC(=O)[C@H](C)NC(=O)[C@H](CCCNC(=N)N)NC(=O)CNC(=O)[C@@H](N)CCCNC(=N)N)C(=O)NCCCC[C@H](NC(=O)[C@H](CCCCNC(=O)[C@H](CCCNC(=N)N)NC(=O)[C@H](CCCNC(=N)N)NC(=O)[C@H](C)NC(=O)[C@H](C)NC(=O)[C@H](C)NC(=O)[C@H](CCCNC(=N)N)NC(=O)CNC(=O)[C@@H](N)CCCNC(=N)N)NC(=O)[C@H](CCCNC(=N)N)NC(=O)[C@H](CCCNC(=N)N)NC(=O)[C@H](C)NC(=O)[C@H](C)NC(=O)[C@H](C)NC(=O)[C@H](CCCNC(=N)N)NC(=O)CNC(=O)[C@@H](N)CCCNC(=N)N)C(=O)N[C@@H](CCCCN)C(=O)O` [[(SEQ ID NO: 16)2K]2KK] (I: H-RGRAAARRKKK-OH / II: H-RGRAAARRK / III: H-RGRAAARR / IV: H-RGRAAARR; amide I:9-IV:C, I:10-II:C, II:9-III:C; N-terminus and C-terminus assumed) is 169 µM.
